Where a name gives a salt, the structure may show the parent alone. Read-outs that look alike come from different tables or passages of the source.
How the values were obtained:
[1] = in vivo; details: mouse
[2] = system: Escherichia coli P-5101; assay: In vivo efficacy against systemic infection; set-up: species or system male mice (ddY); details: P5101, in Mus musculus, 168 h, sc, twice, about 5 minutes and 6 hours after infection, read-out: ED50 (median effective dose)
Experimental: (§1) The contents in the vials (No. A and No. C) prepared in Example 17 were each dissolved in deionized water, and injections having various concentrations were prepared.
(§2) Compounds A, B, F, G, H and M were dissolved in deionized water.
(§3) Mice: male mice (ddY) weighting about 20g
(§4) Intraperitoneal infection with 50 to
(§5) of a bacterial suspension in tryptosoy
(§6) twice, about 5 minutes and 6 hours after
(§7) calculated in accordance with the Behrens-Kaerber method [Arch. Exp. Path

[3] = system: Pseudomonas aeruginosa No. 12; assay: In vivo efficacy against systemic infection; set-up: species or system male mice (ddY); details: NO.12, in Mus musculus, sc, twice, about 5 minutes and 6 hours after infection, read-out: ED50 (median effective dose)
Experimental: as §1, §2, §3
Pseudomonas aeruginosa No. 12;
as §4, §5, §6
Pseudomonas aeruginosa No. 12
as §7

[4] = system: Staphylococcus aureus No. 50774; assay: In vivo efficacy against systemic infection; set-up: species or system male mice (ddY); details: NO.50774, in Mus musculus, 336 h, sc, twice, about 5 minutes and 6 hours after infection, read-out: ED50 (median effective dose)
Experimental: as §1
Compounds A, B, F, G, H and M were dissolved in deionized water. Compounds C, D, E and J were dissolved in an aqueous solution of sodium carbonate (pH 8-9) to prepare injections of various concentrations.
Each of the injections was administered to mice under the conditions described below, and the median effective doses (ED50) obtained are shown in Table II.
as §3
Staphylococcus aureus No. 50774;
Intravenous infection with 50 to 100
LD50 (about 5 × 10^8cells/mouse) of a
bacterial suspension in saline.
as §6
Staphylococcus aureus No. 50774 14 days
The numerals in the table show ED50 (mg/kg). ED50 values were
as §7

[5] = system: Proteus rettgeri P-2503; assay: In vitro antibacterial activity (MIC); assay type: cell-based; details: Providencia rettgeri
From the text: (§8) In vitro antibacterial activity against 20 strains of bacteria
(§9) The numerals in the table show minimum inhibitory concentrations (MIC)

[6] = system: Escherichia coli NIHJ JC-2; assay: In vitro antibacterial activity (MIC); assay type: cell-based
From the text: as §8, §9

[7] = system: Escherichia coli P-5101; assay: In vitro antibacterial activity (MIC); assay type: cell-based
From the text: as §8, §9

[8] = system: Proteus mirabilis P-2381; assay: In vitro antibacterial activity (MIC); assay type: cell-based
From the text: as §8, §9

[9] = system: Streptococcus pyogenes 65A; assay: In vitro antibacterial activity (MIC); assay type: cell-based; details: read-out: minimum inhibitory concentration (MIC)
From the text: as §8, §9

[10] = system: Salmonella typhimurium S-9; assay: In vitro antibacterial activity (MIC); assay type: cell-based; details: Salmonella enterica; Salmonella typhimurium S-9; read-out: minimum inhibitory concentration (MIC)
From the text: as §8, §9

[11] = system: Proteus morganii Kono; assay: In vitro antibacterial activity (MIC); assay type: cell-based; details: Morganella morganii, read-out: minimum inhibitory concentration (MIC)
From the text: as §8, §9

[12] = system: Pseudomonas aeruginosa Tsuchijima; assay: In vitro antibacterial activity (MIC); assay type: cell-based; details: read-out: minimum inhibitory concentration (MIC)
From the text: as §8, §9

[13] = system: Streptococcus faecalis P-2473; assay: In vitro antibacterial activity (MIC); assay type: cell-based; details: Enterococcus faecalis
From the text: as §8, §9

[14] = system: Pseudomonas aeruginosa No.12; assay: In vitro antibacterial activity (MIC); assay type: cell-based
From the text: as §8, §9

[15] = system: Staphylococcus aureus 209P JC-1; assay: In vitro antibacterial activity (MIC); assay type: cell-based; details: read-out: minimum inhibitory concentration (MIC)
From the text: as §8, §9

[16] = system: Salmonella enteritidis No. 1891; assay: In vitro antibacterial activity (MIC); assay type: cell-based; details: Salmonella enterica; Salmonella enteritidis No. 1891; read-out: minimum inhibitory concentration (MIC)
From the text: as §8, §9

[17] = system: Klebsiella pneumoniae No. 13; assay: In vitro antibacterial activity (MIC); assay type: cell-based
From the text: as §8, §9

[18] = system: Serratia mercescens IFO 3736; assay: In vitro antibacterial activity (MIC); assay type: cell-based
From the text: as §8, §9

[19] = system: Shigella flexneri 2a; assay: In vitro antibacterial activity (MIC); assay type: cell-based; details: read-out: minimum inhibitory concentration (MIC)
From the text: as §8, §9

[20] = system: Corynebacterium pyogenes C-21; assay: In vitro antibacterial activity (MIC); assay type: cell-based; details: Rhodococcus (subgen. Prescottella) equi, C21; Corynebacterium pyogenes C-21; read-out: minimum inhibitory concentration (MIC)
From the text: as §8, §9

[21] = system: Shigella flexneri 4a P-330; assay: In vitro antibacterial activity (MIC); assay type: cell-based; details: 4AP330, read-out: minimum inhibitory concentration (MIC)
From the text: as §8, §9

[22] = system: Staphylococcus aureus No. 50774; assay: In vitro antibacterial activity (MIC); assay type: cell-based
From the text: as §8, §9

[23] = system: Escherichia coli P-140a; assay: In vitro antibacterial activity (MIC); assay type: cell-based
From the text: as §8, §9

[24] = system: Enterobacter cloacae P-2540; assay: In vitro antibacterial activity (MIC); assay type: cell-based; details: P2540; Enterobacter cloacae P-2540; read-out: minimum inhibitory concentration (MIC)
From the text: as §8, §9

[25] = system: 20 strains of bacteria; assay: In vitro antibacterial activity, overall conclusions; assay type: cell-based; details: in vitro, Table I
From the text: as §8

## CC1(C)S[C@@H]2[C@H](NC(=O)[C@H](NC(=O)c3c[nH]c4nc(N5CCN(C=O)CC5)ncc4c3=O)c3ccccc3)C(=O)N2[C@H]1C(=O)O [Compound B, D-α-[5,8-Dihydro-2-(4-formyl-1-piperazinyl)-5-oxopyrido[2,3-d]pyrimidine-6-carboxamido]-benzylpenicillin sodium salt]
[1]; iv
  LD50 at 168 h: 2830 mg/kg
[1]; sc
  LD50 at 168 h: < 4000 mg/kg
[2]
  ED50: 21 mg/kg
[3]
  ED50: 17.7 mg/kg
[4]
  ED50: 3.4 mg/kg
[5]; P2503, read-out: minimum inhibitory concentration (MIC)
  MIC: 6.25 µg/mL
[6]; Escherichia coli, NIHJJC2, read-out: minimum inhibitory concentration (MIC)
  MIC: 6.25 µg/mL
[7]; Escherichia coli, P5101, read-out: minimum inhibitory concentration (MIC)
  MIC: 3.13 µg/mL
[8]; Proteus mirabilis, P2381, read-out: minimum inhibitory concentration (MIC)
  MIC: 3.13 µg/mL
[9]; Streptococcus pyogenes, 65A
  MIC: < 0.1 µg/mL
[10]
  MIC: 1.56 µg/mL
[11]
  MIC: 3.13 µg/mL
[12]; Pseudomonas aeruginosa Tsuchijima
  MIC: 1.56 µg/mL
[13]; P2473, read-out: minimum inhibitory concentration (MIC)
  MIC: 6.25 µg/mL
[14]; Pseudomonas aeruginosa, NO.12, read-out: minimum inhibitory concentration (MIC)
  MIC: 6.25 µg/mL
[15]; Staphylococcus aureus, 209P
  MIC: 0.78 µg/mL
[16]
  MIC: 0.78 µg/mL
[17]; Klebsiella pneumoniae, NO.13, read-out: minimum inhibitory concentration (MIC)
  MIC: 6.25 µg/mL
[18]; Serratia, IFO3736, read-out: minimum inhibitory concentration (MIC)
  MIC: 12.5 µg/mL
[19]
  MIC: 3.13 µg/mL
[20]
  MIC: 1.56 µg/mL
[21]
  MIC: 6.25 µg/mL
[22]; Staphylococcus aureus No. 50774, read-out: minimum inhibitory concentration (MIC)
  MIC: 0.78 µg/mL
[23]
  minimum inhibitory concentration (MIC): 12.5 µg/mL
[24]
  MIC: 12.5 µg/mL

## O=CN1CCN(c2ncc3c(=O)c(C(=O)O)c[nH]c3n2)CC1 [Compound K, 5,8-Dihydro-2-(4-formyl-1-piperazinyl)-5-oxopyrido[2,3-d]pyrimidine-6-carboxylic acid]
[25]
  antibacterial activity (in words): do not substantially show antibacterial activity
[5]; P2503, Proteus rettgeri P-2503, read-out: minimum inhibitory concentration (MIC)
  MIC: > 100 µg/mL
[6]; NIHJJC2, Escherichia coli NIHJ JC-2, read-out: minimum inhibitory concentration (MIC)
  MIC: > 100 µg/mL
[7]; P5101, Escherichia coli P-5101, read-out: minimum inhibitory concentration (MIC)
  MIC: > 100 µg/mL
[8]; P2381, Proteus mirabilis P-2381, read-out: minimum inhibitory concentration (MIC)
  MIC: > 50 µg/mL
[9]; Streptococcus pyogenes 65A
  MIC: > 100 µg/mL
[10]
  MIC: > 50 µg/mL
[11]; Proteus morganii Kono
  MIC: > 200 µg/mL
[12]; Pseudomonas aeruginosa
  MIC: > 200 µg/mL
[13]; P2473, Streptococcus faecalis P-2473, read-out: minimum inhibitory concentration (MIC)
  MIC: > 50 µg/mL
[14]; Pseudomonas aeruginosa No.12, read-out: minimum inhibitory concentration (MIC)
  MIC: > 200 µg/mL
[15]; Staphylococcus aureus 209P JC-1
  MIC: > 50 µg/mL
[16]
  MIC: > 50 µg/mL
[17]; Klebsiella pneumoniae No. 13, read-out: minimum inhibitory concentration (MIC)
  MIC: > 200 µg/mL
[18]; IFO3736, Serratia mercescens IFO 3736, read-out: minimum inhibitory concentration (MIC)
  MIC: > 100 µg/mL
[19]
  MIC: > 100 µg/mL
[20]
  MIC: > 50 µg/mL
[21]
  MIC: > 100 µg/mL
[22]; Staphylococcus aureus, NO.50774, read-out: minimum inhibitory concentration (MIC)
  MIC: > 50 µg/mL
[23]
  minimum inhibitory concentration (MIC): > 200 µg/mL
[24]
  MIC: > 200 µg/mL

Reference: patent publication US4103011A, “Novel penicillin compounds and process for preparation thereof” (priority 1976, dated 1978)
